Among the data in a melting point compilation (Tetko et al.; mined from patent text by program, amines drawn as free bases though some values may be those of a salt) are melting point values, retold here.

Where only a bound is given, the exact number is not on record here.

`CCOC(=O)c1ccc(-n2nc(-c3ccccc3O)nc2-c2ccccc2O)cc1` displayed a melting point of 148 to 149 °C.

In turn, `COc1ccc(-c2c3c(c(C)c4ccc(OC)cc24)C(=O)NC3)cc1` yielded a melting point of 235 to 237 °C.

`c1ccc2c(c1)Sc1ccccc1C1=C2CCNCC1` came in with a melting point of 142 to 143 °C.

For `O=C(c1ccccc1)C1CCN(Sc2ccncc2)CC1`, the melting point lay in the range of 123 to 124 °C.

In turn, `COCC(CCO)(OC)c1cccc(OCc2ccc3ccccc3c2)c1` (stereo not drawn) displayed a melting point of 64 to 65 °C.

Regarding `Cc1c(C(=O)C(N)=O)c2c(OCC(=O)O)cc3c(c2n1Cc1ccccc1)CCCC3`, the melting point is greater than 300 °C.

For the molecule `Nc1ccccc1Nc1ccccc1F`, the melting point fell in the range of 82 to 83 °C.

Molecule `CCOCC(=O)c1cc(C(C)(C)C)c(O)c(C(C)(C)C)c1` showed a melting point of 73 to 75 °C.

`CCc1nc2c(N)nc3cc(OCCc4c(C)n[nH]c4C)ccc3c2s1`: the melting point was in the range of 195 to 197 °C.

For `NC(=O)c1c(Cl)c(-c2ccccc2)n2c1CN(C(=O)Oc1ccccc1)CC2`, the melting point is 196 to 198 °C.

Consider `Cc1noc(NS(=O)(=O)c2c(C)sc3ccccc23)c1Br`, for which the melting point was in the range of 131 to 133 °C.

`O=C1c2ccccc2C2(O)Oc3c(ccc4ccccc34)C12O` (stereo not drawn) gave a melting point of 216 to 218 °C.

`CC1CC(=O)NN=C1c1ccc(NC2=CC(=O)CC2)cc1` (stereo not drawn) showed a melting point greater than 300 °C.

As for `NS(=O)(=O)c1ccc(-c2cc3cccccc-3c2-c2ccccc2)cc1`, the melting point was in the range of 169 to 170 °C.

`CC(C)CCC1(CCC(C)C)c2cc(Cl)ccc2-c2ccc(Cl)cc21` displayed a melting point of 116 to 118 °C.

The molecule `CCCCCN(CCCCC)C(=O)[C@H]1Cc2c([nH]c3ccccc23)CN1` gave a melting point of 157 to 158 °C.

With `C=Cc1cc(Br)c(O)c(Br)c1`, the melting point was determined as 75 °C.

Molecule `CC(=O)Nc1ccc(C(=O)N2CC3CC(CN(Cc4ccc(Cl)cc4)C3)C2)cc1` came in with a melting point of 181 °C.

Turning to `COc1cc(C2C(=O)N(C)Cc3cc4c(cc32)OCCO4)cc(OC)c1OC` (stereo not drawn), the melting point was in the range of 148 to 149 °C.

In the case of `COc1cc(Cl)ccc1C(=O)NC1COCCn2c1nc(-c1ccncn1)cc2=O` (racemic), the melting point was in the range of 274 to 276 °C.

On to `O=C1CCCc2ccc(OCc3ccc4ccccc4n3)cc21`, for which the melting point lay in the range of 98.5 to 102 °C.

Turning to `CC(C)(C)OC(=O)N[C@@H](Cc1cc(F)cc(F)c1)[C@H](O)CCl`, the melting point amounted to 149 °C.

As for `Cc1nn(-c2cc(C(=O)O)c(Cl)cc2F)c(=O)n1C(F)F`, the melting point is 132 to 135 °C.

In turn, `COC(OC)C1CCC2C3CCC4CC(O)CCC4(C)C3C(=O)CC12C` (stereo not drawn) yielded a melting point of 136 to 142 °C.

The molecule `Cc1cc(-c2[nH]c3c([N+](=O)[O-])cccc3c2C)cc(C)c1O` had a melting point of 178 to 179 °C.

Molecule `CCN1C(=O)C(C)(C)C(=O)N(C)c2cc(CCCN(CCn3ccc4ccoc4c3=O)Cc3cccnc3C)ccc21` gave a melting point of 106 to 115 °C.

`O=C1CN(c2nccc(Oc3ccc(NC(=O)c4cc(F)cc(N5CCOCC5)c4)c4ccccc34)n2)CCN1` showed a melting point of 108 to 110 °C.

In the case of `O=Cc1ccc2c3ccccc3c3ccccc3c2c1`, the melting point was in the range of 160 to 162 °C.

`CSc1nc(OC(F)F)cc(OC(F)F)n1` registered a melting point of 46 to 48 °C.

In turn, `Cc1cccc(-c2n[nH]cc2-c2ccc(F)c(-c3ccc(N4CCN(C)CC4)cn3)c2)n1` gave a melting point of 97 °C.

Consider `CC(C)(ON1C(=O)c2ccccc2C1=O)C(=O)O`, for which the melting point was in the range of 133 to 135 °C.

On to `CC(=N)NC(=O)Nc1ccc(C#N)c(Cl)c1`, for which the melting point was in the range of 182 to 183 °C.

As to `C=CC(O)c1cc(OC)c2oc(-c3ccc(O)c(OC)c3)c(C)c2c1` (stereo not drawn), the melting point fell in the range of 164 to 167 °C.

`CCCNC(=O)CCn1cnc2c(N)nc3ccccc3c21` yielded a melting point of 212 to 214 °C.

`OCc1cn(-c2ccc(Cl)cc2)cn1` yielded a melting point of 115 to 116 °C.

Take `C=C(C(=O)OC)N(Cc1cc(C)ccc1NC(=O)c1ccccc1)S(=O)(=O)c1ccc(OC)cc1`: the melting point lay within 58 to 62 °C.

For `CC(=O)Oc1ccc2c(c1)CC=C1C2CCC2(C)C=CCC12` (stereo not drawn), the melting point was 77 to 80 °C.

In the case of `CCCCCC(=O)Nc1c(C)c(C)c2c(c1C)C(c1ccc(C)cc1)C(C)(C)O2` (stereo not drawn), the melting point is 96 to 97 °C.

The molecule `CCOc1nn(CCOc2ccccc2CC(=O)O)cc1C(=O)NCc1ccc(Cl)cc1Cl` displayed a melting point of 167 to 169 °C.

On to `CC(=O)NCc1ccc(CN2CCN(c3ccc(N)cc3)CC2)cc1`, for which the melting point was in the range of 198 to 200 °C.

With `Cc1nnc2n1-c1ccc(C#C[Si](C)(C)C)cc1C(c1ccccc1F)=NC2`, the melting point lay within 218 to 219 °C.

In turn, `CC(C)(C)OC(=O)Nc1ncc(C=O)s1` displayed a melting point of 173 to 175 °C.

Regarding `Cc1ccccc1C(=O)c1cccn1C`, the melting point was in the range of 90 to 92.5 °C.

In the case of `CCN(CC)C(=O)n1nc(Oc2ncc(C(F)(F)F)cc2Cl)cc1C(F)(F)F`, the melting point lay within 58 to 60 °C.

On to `CCOc1ccc(-c2nc(C=O)cs2)cc1OCC`, for which the melting point lay in the range of 84 to 87 °C.

The molecule `O=C(O)CCc1cn(Cc2ccc(OCc3coc(-c4ccccc4)n3)cc2)cc1-c1ccccc1` had a melting point of 139 to 140 °C.

In turn, `CCCNC(=O)CCCn1c(CCC)nc2c(N)nc3ccccc3c21` displayed a melting point of 161 to 163 °C.

In turn, `C=C(OCc1ccccc1)C(=O)OC` came in with a melting point of 44.5 to 45.5 °C.

As for `CC1(C)CC(OC(=O)Nc2ccccc2)CC(C)(C)N1CC(OC(=O)Nc1ccccc1)c1ccccc1` (stereo not drawn), the melting point stood at 173 °C.

Molecule `COc1ccccc1-n1c(=O)[nH]c2c(C(N)=O)nc(-c3ccncc3)nc21` returned a melting point of 318 to 320 °C.

On to `CN(C(=O)Nc1cccnc1)c1ccc2c(ccn2C)c1`, for which the melting point fell in the range of 168 to 170 °C.

`COc1ccc(C(C)=O)cc1S(N)(=O)=O` returned a melting point of 200 to 201 °C.

Regarding `NC(=O)c1n[nH]c2ccc([N+](=O)[O-])cc12`, the melting point lay within 221 to 226 °C.

In turn, `Clc1nn2nnnc2c2c1CCCC2` came in with a melting point of 109 to 110 °C.

The molecule `CS(=O)(=O)c1ccc(-c2cnn(CC(F)(F)F)c(=O)c2OCc2ccccc2)cc1` gave a melting point of 121 to 123 °C.

As for `CCCc1c(OCCCCC(=O)c2ccc3cc(OC)c(OC)cc3c2)ccc(C(=O)O)c1O`, the melting point was in the range of 177 to 178 °C.

With `CCCCCCCCCCCCCCCCOC[C@@H]1OCC[C@H]1OP(=O)([O-])OCC[N+](C)(C)C` (relative stereo), the melting point was in the range of 213 to 223 °C.

For the molecule `Cc1cc(C)c2c(c1)CC2=NNC(N)=S`, the melting point was 230 to 232 °C.

In turn, `O=C(Oc1ccc([N+](=O)[O-])cc1)OC1CCN(C(=O)Oc2ccc(Oc3ccccc3)cc2)CC1` showed a melting point of 108 to 109 °C.

In turn, `Brc1cn2ccsc2n1` gave a melting point of 96 to 98 °C.

`COc1ccc(N2CCN(c3c(C)c(C)c4c(c3C)C(O)(c3cccs3)C(C)(C)O4)CC2)cc1` (stereo not drawn) came in with a melting point of 154 to 155 °C.

`C(#Cc1ccccn1)CCc1nc(-c2ccc3ccccc3c2)no1` registered a melting point of 76 to 78 °C.

As for `COc1cccc2[nH]c(=O)n3c(=O)[nH]nc3c12`, the melting point is greater than 350 °C.

For the molecule `CCc1nc(OC)c(NC(=O)N2CCN(c3cccc(F)c3)CC2)cc1C(=O)Nc1cc(CO)cc(Nc2c3ccccc3nc3ccccc23)c1`, the melting point was 186 to 188 °C.

In turn, `O=[N+]([O-])c1cc(-c2nc3ccccc3[nH]2)cc(O)c1O` had a melting point greater than 300 °C.

`O=C(c1ccccc1)c1cc(Cl)cc2c1OCC2C(=O)O` (stereo not drawn): the melting point was in the range of 155 to 157 °C.

Consider `COC(=O)c1c(N)c2ccccc2[nH]c1=O`, for which the melting point was determined as 236 °C.

Turning to `COc1cccc2c1-c1ccc3c(c1C(O)O2)C(C)=CC(C)(C)N3` (stereo not drawn), the melting point lay within 184 to 185 °C.

In turn, `O=c1ccc2cc(-c3cccnc3)ccc2[nH]1` gave a melting point of 217 to 218 °C.

The molecule `CC(=O)OC1CSC(Oc2cnccc2-c2ccncc2)C(OC(C)=O)C1OC(C)=O` (stereo not drawn) registered a melting point of 185 °C.

`CNC(=O)C(CCn1c(COc2ccc(Cl)cc2)nc2c(C)cccc21)Cc1ccccc1` (stereo not drawn) yielded a melting point of 169 to 170 °C.

Regarding `CC(C)OC(=O)N1CCC(c2ccc3oc(-c4ccc(C(F)(F)F)cc4)nc3c2)CC1`, the melting point fell in the range of 145 to 148 °C.

With `On1c(C(F)(F)F)nc2nc(Cl)c(Cl)cc21`, the melting point fell in the range of 207 to 208 °C.

The molecule `CC(=O)N[C@H]1CCC(=O)N2CCC[C@@H](C(=O)OC(C)(C)C)N2C1=O` showed a melting point of 162 to 163 °C.

`Cc1cc(C)c(-c2cc3cnc(N)nc3nc2N)c(C)c1` had a melting point of 276 to 282 °C.

As for `CN1CCN(S(=O)(=O)Nc2ccc(-c3nc(-c4ccc(F)cc4)c(-c4ccncc4)[nH]3)cc2)CC1`, the melting point fell in the range of 74 to 76 °C.

Consider `CS(=O)C1CC(=O)N1CC(=O)NCc1ccccc1` (single isomer, unassigned; (-)), for which the melting point lay in the range of 138 to 140 °C.

Consider `C=Cc1cn(C)c2cc(-c3ccccc3Cl)c3c(c12)C(=O)NC3=O`, for which the melting point fell in the range of 200 to 205 °C.

Molecule `CCCCOc1cc(CCC(=O)O)n(Cc2ccc(C(F)(F)F)cc2Cl)n1` had a melting point of 125 to 126 °C.

As to `CCOC(=O)C(c1ccncc1)C(c1ccccc1)c1ccc(OC)c(OC2CCCC2)c1` (stereo not drawn), the melting point fell in the range of 165 to 166 °C.

In the case of `COc1cc(C(C)C)c2c(c1)S(=O)(=O)N(COc1cc(C(F)(F)F)nn1-c1ccc3ccccc3n1)C2=O`, the melting point lay in the range of 124 to 125 °C.

For the molecule `COc1ccc2cc([C@H](C)C(=O)OCCS(=O)CCO)ccc2c1` (stereo partly drawn), the melting point was in the range of 74 to 86 °C.

As to `Cc1c(Cl)nnc(Cl)c1Cl`, the melting point lay in the range of 67.5 to 70 °C.

For the molecule `O=C(c1ccc(F)cc1F)C1CCN(CC2=Cc3ccccc32)CC1`, the melting point was 70 °C.

Consider `C[C@]12C[C@H](c3ccc(OCCCCCS(=O)(=O)CCCc4c(F)c(F)c(F)c(F)c4F)cc3)[C@@H]3c4ccc(O)cc4CC[C@H]3[C@@H]1CC[C@@H]2O`, for which the melting point came out at 130 °C.

On to `CCOC(=O)c1oc2cc(-c3ccc(CO)cc3)ccc2c1C`, for which the melting point lay within 135 to 136 °C.

As to `N#Cc1cccc(C=CC=O)c1`, the melting point stood at 100 °C.

Regarding `CCCCc1ncc(/C=C(\Cc2ccsc2)c2nnn[nH]2)n1Cc1ccccc1Cl`, the melting point lay in the range of 142 to 144 °C.

As a reminder, the melting point is the temperature of the solid-liquid transition.
